In brackets after ≈: the same amount, converted by molar mass.
Assays:
[1] = tested on: ethanol-induced gastric ulcers; assay: Effects on ethanol-induced gastric ulcers (inhibition of gastric mucosal lesions, oral); format: in vivo, male rats of the Sprague-Dawley strain; conditions: p.o., 1 hour before 1 ml absolute ethanol, rat, ID50 of gastric mucosal lesions, read-out: Anti-ulcer activity (ID50, p.o.)
Protocol: Effects on ethanol-induced qastric ulcers
The test animals used were male rats of the Sprague-Dawley strain each having a body weiqht of about 180-200 g, prior to use in this experiment they were starved for about 42 hours. At the end of this time, each animal was orally administered one of the test compounds shown in the following Table 3. in which the compounds are identified by the number of the foregoing Example in which they were prepared. One hour after administration, gastric mucosal lesions were induced by the oral administration of 1 ml of absolute ethanol. One hour after this administration, the animals were sacrificed with dry ice, and their stomachs were removed and fixed with formalin. The area (mm^2) of the mucosal lesions induced on the gastric mucosa by the ethanol was measured by a video image processor and the inhibition of gastric mucosal lesions by each test compound was calculated in terms of the ID50, by comparison with the results achieved from control animals which had been treated as described above, except that no anti ulcer compound was administered and from the results achieved from the test compounds at various levels of administration.
As a control, there was used the following prior art 6-oxo compound (ORNOPROSTIL): [drawing 12]

[2] = tested on: blood platelet aggregation; assay: Inhibition of blood platelet aggregation in vitro (adenosine diphosphate-induced, Born's method); format: cell-based, Japanese white rabbit; conditions: Oryctolagus cuniculus, rabbit PRP/PPP mixture, ADP 5μM
Protocol: Inhibition of blood platelet aggregation in vitro
One part by volume of blood from a Japanese white rabbit was mixed immediately after removal with one tenth of its volume of a 3.8% w/v aqueous solution of sodium citrate. The mixture was then centrifuged at 95×G for 15 minutes at room temperature to obtain a platelet-rich plasma (PRP) as the upper layer. The remaining blood sample was then centrifuged for a further 15 minutes at 1000×G to obtain a platelet poor plasma (PPP). By mixing appropriate amounts of the PRP and the PPP, the final platelet count of the mixture was adjusted to 6×105 per μ, platelet aggregation was determined by Born's method [G. V. R. Born: J. Physiol. 62, 67-68 (1962)] by increases in transparency of the test liquid using a platelet aggregometer 25 μl of a solution of the test compound were added to 250 μof the mixture of PRP and PPP and then two minutes after mixing the solutions 25 μl of a liquid containing adenosine diphosphate at a concentration of 5μM were added.
The inhibition of platelet aggregation was assessed by comparing the increase in the amount of light transmitted through the test sample treated platelet-rich plasma with a control platelet-rich plasma which had been treated in the same way, except that the test compound was replaced by physiological saline.

Q: What does the source list for `COC(=O)CCCC(=O)CC[C@H]1C(=O)C[C@@H](O)[C@@H]1/C=C/[C@@H](O)COc1ccc(Cl)cc1` [Ex. 11, 5-Oxo-16-p-chlorophenoxy-17,18,19,20-tetranorprostaglandin E1 methyl ester]?
A: ED50 [1]: 0.49 µg/kg; IC50 [2]: > 10 µg/mL

Q: For `COC(=O)CCC(=O)CCC[C@H]1C(=O)C[C@@H](O)[C@@H]1/C=C/[C@@H](O)COc1ccccc1` [Ex. 30, Methyl 4,9-dioxo-11α,15α-dihydroxy-16-phenoxy17,18,19,20-tetranprprost 13(E)-enoate], which ED50 [1] is on record?
A: 3.7 µg/kg

Q: What about the IC50 [2] of the same compound?
A: > 10 µg/mL

Q: `COC(=O)CCCC(=O)CC[C@H]1C(=O)C[C@@H](O)[C@@H]1/C=C/[C@@H](O)COc1ccccc1` [Ex. 1, 5-Oxo-16-phenoxy-17,18,19,20-tetranorprostaglandin E1 methyl ester] was tested. Which ED50 [1] did it give?
A: 2.94 µg/kg

Q: What about the IC50 [2] of the same compound?
A: > 10 µg/mL

Q: With `CCCC[C@H](C)C[C@H](O)/C=C/[C@H]1[C@H](O)CC(=O)[C@@H]1CC(=O)CCCCC(=O)OC` [Control, reference compound] as the compound, how does the ED50 [1] read?
A: 0.2 µg/kg

Q: What about the IC50 [2] of the same compound?
A: 0.0019 µg/mL (≈ 0.00463 µM)

Q: Which results are given for `CCCCC(C)(C)[C@H](O)/C=C/[C@H]1[C@H](O)CC(=O)[C@@H]1CCCC(=O)CCC(=O)OC` [Ex. 31, Methyl 4,9-dioxo-11α,15α-dihydroxy-16,16-dimethylprost 13(E) enoate]?
A: ED50 [1]: 4.91 µg/kg; IC50 [2]: > 10 µg/mL

Reference: patent publication US4981872A, “Prostaglandin derivatives, their preparation and their therapeutic use” (Sankyo Company Limited, priority 1987, dated 1991)
